Experimental data published in PubChem BioAssay (NCI).
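48-hour exposure; five concentrations; linearly interpolated endpoints. TGI: total growth inhibition.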

What was measured:
Assay in all cases: inhibition of tumour cell growth, NCI panel, 48 h
EKVX NSCLC = test system: EKVX NSCLC
HCT-15 colon = test system: HCT-15 colon
IGROV1 ovarian = test system: IGROV1 ovarian
HOP-62 NSCLC = test system: HOP-62 NSCLC
KM12 colon = test system: KM12 colon
UO-31 renal = test system: UO-31 renal
BT-549 breast = test system: BT-549 breast
COLO 205 colon = test system: COLO 205 colon
HT29 colon = test system: HT29 colon
UACC-62 melanoma = test system: UACC-62 melanoma
MALME-3M melanoma = test system: MALME-3M melanoma
TK-10 renal = test system: TK-10 renal
SNB-19 CNS = test system: SNB-19 CNS
SF-539 CNS = test system: SF-539 CNS
NCI-H23 lung = test system: NCI-H23 lung
SK-OV-3 ovarian = test system: SK-OV-3 ovarian
NCI-H460 lung = test system: NCI-H460 lung
ACHN renal = test system: ACHN renal
NCI-H226 lung = test system: NCI-H226 lung
SNB-75 CNS = test system: SNB-75 CNS
MOLT-4 leukemia = test system: MOLT-4 leukemia
DU-145 prostate = test system: DU-145 prostate
OVCAR-4 ovarian = test system: OVCAR-4 ovarian
MCF7 breast = test system: MCF7 breast
NCI/ADR-RES ovarian = test system: NCI/ADR-RES ovarian
OVCAR-5 ovarian = test system: OVCAR-5 ovarian
MDA-MB-231 breast = test system: MDA-MB-231 breast
CCRF-CEM leukemia = test system: CCRF-CEM leukemia
LOX IMVI melanoma = test system: LOX IMVI melanoma
SF-295 CNS = test system: SF-295 CNS
U251 CNS = test system: U251 CNS
SK-MEL-2 melanoma = test system: SK-MEL-2 melanoma
786-0 renal = test system: 786-0 renal
M14 melanoma = test system: M14 melanoma
HCT-116 colon = test system: HCT-116 colon
HS 578T breast = test system: HS 578T breast
PC-3 prostate = test system: PC-3 prostate
UACC-257 melanoma = test system: UACC-257 melanoma
T-47D breast = test system: T-47D breast
RXF 393 renal = test system: RXF 393 renal
RPMI-8226 leukemia = test system: RPMI-8226 leukemia
MDA-MB-435 = test system: MDA-MB-435
MDA-N = test system: MDA-N
SN12C renal = test system: SN12C renal
K-562 leukemia = test system: K-562 leukemia
HL-60(TB) leukemia = test system: HL-60(TB) leukemia
SF-268 CNS = test system: SF-268 CNS
OVCAR-3 ovarian = test system: OVCAR-3 ovarian
SK-MEL-28 melanoma = test system: SK-MEL-28 melanoma
OVCAR-8 ovarian = test system: OVCAR-8 ovarian
SW-620 colon = test system: SW-620 colon
A549 NSCLC = test system: A549 NSCLC
HOP-92 NSCLC = test system: HOP-92 NSCLC
NCI-H522 lung = test system: NCI-H522 lung
A498 renal = test system: A498 renal
SR leukemia = test system: SR leukemia
SK-MEL-5 melanoma = test system: SK-MEL-5 melanoma
CAKI-1 renal = test system: CAKI-1 renal

Measured: TGI

O=S(=O)(/N=S(/Nc1ccccc1)C(Cl)Cl)c1ccccc1 (stereo not drawn)
not listed: NCI-H522 lung | A498 renal | SR leukemia | SK-MEL-5 melanoma | CAKI-1 renal
> 100 µM: all other assays above

O=C(O)CC1OCC=C2CN3CCC45c6ccccc6NC4C1C2CC35 (stereo not drawn)
not listed: MALME-3M melanoma | SK-MEL-2 melanoma | HS 578T breast
> 100 µM: all other assays above
